Reference: ChEMBL document CHEMBL1133782, “Solid-phase synthesis of cyclic alkoxyketones, inhibitors of the cysteine protease cathepsin K” (Bioorg Med Chem Lett, 2001)

Biological target: T1, Cathepsin K (Homo sapiens, UniProt P43235)
T1 sequence (P43235 whole entry): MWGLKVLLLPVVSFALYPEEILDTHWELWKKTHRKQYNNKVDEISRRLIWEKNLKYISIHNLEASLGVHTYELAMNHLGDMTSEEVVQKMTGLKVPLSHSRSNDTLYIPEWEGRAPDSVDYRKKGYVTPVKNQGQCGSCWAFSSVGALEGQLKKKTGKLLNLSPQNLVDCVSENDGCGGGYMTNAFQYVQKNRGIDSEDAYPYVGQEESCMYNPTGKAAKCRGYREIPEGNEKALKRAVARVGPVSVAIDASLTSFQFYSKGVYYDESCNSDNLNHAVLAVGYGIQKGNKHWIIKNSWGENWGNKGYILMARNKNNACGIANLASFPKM
Assay: Inhibitory activity against human cysteine protease, cathepsin K.

Ki | SMILES
11 nM | CC(C)C[C@H](NC(=O)c1cc2ccccc2s1)C(=O)NC1COCC1=O (some centres undefined)
> 10000 nM | NC(=O)CC[C@H](NC(=O)c1cc2ccccc2s1)C(=O)NC1COCC1=O (some centres undefined)
> 10000 nM | O=C(O)CC[C@H](NC(=O)c1cc2ccccc2s1)C(=O)NC1COCC1=O (some centres undefined)
19 nM | CC(C)C[C@H](NC(=O)c1ccc(-c2ccccc2)cc1)C(=O)NC1COCC1=O (some centres undefined)
61 nM | CC(C)C[C@H](NC(=O)c1ccc2ccccc2c1)C(=O)NC1COCC1=O (some centres undefined)
710 nM | CC(C)C[C@H](NC(=O)c1ccc(S(C)(=O)=O)cc1)C(=O)NC1COCC1=O (some centres undefined)
64 nM | CC(C)C[C@H](NC(=O)c1ccc(C(C)C)cc1)C(=O)NC1COCC1=O (some centres undefined)
15 nM | CC(C)C[C@H](NC(=O)c1ccc(C(C)(C)C)cc1)C(=O)NC1COCC1=O (some centres undefined)
140 nM | CC(C)C[C@H](NC(=O)OCc1ccccc1)C(=O)NC1COCC1=O (some centres undefined)
38 nM | CC(C)C[C@H](NC(=O)c1ccc2cc[nH]c2c1)C(=O)NC1COCC1=O (some centres undefined)

Further lines, the compound ahead of its results:

SMILES | Ki
CC(C)C[C@H](NC(=O)c1ccc(F)c(F)c1)C(=O)NC1COCC1=O (some centres undefined) | 820 nM
CC(C)[C@H](NC(=O)c1cc2ccccc2s1)C(=O)NC1COCC1=O (some centres undefined) | > 10000 nM
CC(C)C[C@H](NC(=O)c1cc2ccccc2o1)C(=O)NC1COCC1=O (some centres undefined) | 53 nM
O=C(N[C@@H](Cn1ccnc1)C(=O)NC1COCC1=O)c1cc2ccccc2s1 (some centres undefined) | > 10000 nM
COCC(=O)[C@H](C)NC(=O)[C@H](CC(C)C)NC(=O)OCc1ccccc1 | 60 nM
O=C(CNC(=O)c1cc2ccccc2s1)NC1COCC1=O (centres undefined) | > 10000 nM
NCCCC[C@H](NC(=O)c1cc2ccccc2s1)C(=O)NC1COCC1=O (some centres undefined) | > 10000 nM
CC(C)C[C@H](NC(=O)c1ccccc1)C(=O)NC1COCC1=O (some centres undefined) | 180 nM
CC(C)C[C@H](NC(=O)c1ccccn1)C(=O)NC1COCC1=O (some centres undefined) | 420 nM
CC(O)[C@H](NC(=O)c1cc2ccccc2s1)C(=O)NC1COCC1=O (some centres undefined) | > 10000 nM
O=C(N[C@@H](Cc1ccccc1)C(=O)NC1COCC1=O)c1cc2ccccc2s1 (some centres undefined) | > 10000 nM
CC(=O)N[C@@H](CC(C)C)C(=O)NC1COCC1=O (some centres undefined) | > 1000 nM
CC(C)C[C@H](NC(=O)c1cccs1)C(=O)NC1COCC1=O (some centres undefined) | 640 nM
O=C(N[C@@H](CC1CCCCC1)C(=O)NC1COCC1=O)c1cc2ccccc2s1 (some centres undefined) | > 10000 nM
C[C@H](NC(=O)c1cc2ccccc2s1)C(=O)NC1COCC1=O (some centres undefined) | > 10000 nM
CC(C)C[C@H](NC(=O)C1CCCCC1)C(=O)NC1COCC1=O (some centres undefined) | > 1000 nM
CCC[C@H](NC(=O)c1cc2ccccc2s1)C(=O)NC1COCC1=O (some centres undefined) | 190 nM
CC(C)C[C@H](NC(=O)c1cccc([N+](=O)[O-])c1)C(=O)NC1COCC1=O (some centres undefined) | > 1000 nM
CC(C)C[C@H](NC(=O)c1ccc2ccccc2n1)C(=O)NC1COCC1=O (some centres undefined) | 44 nM
